# Experimental data as given in patent publication US20260023070A1, “OPTOGENETIC ALPHA-SYNUCLEIN AGGREGATION SYSTEM-BASED COMPOUND SCREENING PLATFORM IN PD-hiPSC-mDA NEURONS” (The Johns Hopkins University, priority 2022, published 2026).
# Assays:
# [1] = tested on: human PD iPSC-derived mDA neurons treated with α-syn PFF; assay: α-syn PFF model in non-OASIS human PD hiPSC-derived mDA neurons (TX-insoluble pS129-α-syn); format: cell-based; settings: α-syn PFF with compound for 14 days
# Method: To validate the effects of these two compounds on the OASIS-independent model, α-syn PFF were treated with mouse primary neurons and non-OASIS-human PD hiPSC-derived mDA neurons with CDC 021 and BAG 956.
# [2] = tested on: α-syn PFF injected mice; assay: In vivo intrastriatal α-syn PFF mouse model, oral BAG 956 (behaviour, histology, biochemistry)
# Method: To test the neuroprotective potential of BAG 956, in vivo α-syn PFF mouse model was used for a short-term period. […] Next, BAG 956 efficacy was validated for long-term treatment on α-syn PFF mouse model by comprehensive behavioral and biochemical assays. Behavioral analysis was performed to evaluate the behavioral defect elicited by intrastriatal α-syn PFF injection and any restoration of behavioral dysfunction by oral administration of BAG 956 for 6 months at a low (2 mg/kg) or high (10 mg/kg) concentration after one-month recovery from α-syn PFF injection. PBS injected mice were treated vehicle or BAG956^high (10 mg/kg), whereas α-syn PFF injected mice were orally administered with vehicle, BAG 956^low (2 mg/kg), or BAG956^high (10 mg/kg) (FIG. 13A). […] The open field test (OFT) and elevated plus maze (EPM) were performed to evaluate locomotion, exploration, and anxiety behaviors. […] Next, hippocampal- or amygdala-dependent learning and memory based contextual or cued fear conditioning tests were performed. […] To examine whether the oral administration of BAG 956 could rescue the loss of DA neurons induced by intrastriatal α-syn PFF injection, the number of TH-positive neurons in the substantia nigra pars compacta (SNpc) was measured via an unbiased stereological counting analysis.
# [3] = tested on: α-syn PFF-treated opto-α-syn-mDA neurons; assay: Autophagy markers (western blot) in α-syn PFF-treated mDA neurons; format: cell-based, human; settings: compared with control or CDC 021 treatment
# Method: (§1) Because autophagy can be activated by the inhibition of PI 3-kinase (PI3K) or the PDK1 pathway, it was tested whether treatment with BAG 956 can induce the autophagic flux to decrease α-syn aggregates in opto-α-syn mDA neurons and MOs.
# [4] = tested on: blue light-illuminated opto-α-syn-mDA neurons; assay: Autophagy and aggregate clearance in blue light-illuminated opto-α-syn-mDA neurons; format: cell-based, human
# Method: as §1
# [5] = tested on: PI3K-PDK1/AKT/mTOR signaling pathway; assay: PI3K/PDK1 downstream target phosphorylation in α-syn PFF-treated PD hiPSC-derived dopaminergic neurons; format: cell-based, human
# From the text: (§2) Since PI3K-PDK1/AKT/mTOR signaling pathway plays a critical role in regulation of autophagy, it was investigated the effects of BAG 956 treatments on PFF models. […] Taken together, BAG 956 may act as an autophagy-enhancing drug through inhibition of the PI3K-PDK1/AKT/mTOR signaling pathway (FIG. 18I).
# [6] = tested on: PI3K-PDK1/AKT/mTOR signaling pathway; assay: PI3K/PDK1 downstream target phosphorylation in ventral midbrain of α-syn PFF-injected mice; format: in vivo, mouse
# From the text: as §2
# [7] = oral, 6 months, both 2 mg/kg and 10 mg/kg
# [8] = blue light-illuminated opto-α-syn-mDA neurons
# [9] = mDA neurons exposed to blue light
compound,measurement,setting,value
Cc1nc2cnc3ccc(C#Cc4cccnc4)cc3c2n1-c1ccc(C(C)(C)C#N)cc1 [BAG 956],TX-insoluble pS129-α-syn,[1],significant decrease
same,pathologic pSer129-α-syn immunoreactivity in TH-positive neurons of the SN (IHC),"[2]; long-term oral, 10 mg/kg",significantly rescued
same,number of TH- and Nissl-positive stained DA neurons in SNpc (stereological counting),"[2]; oral, 10 mg/kg",recovered
same,protein levels of TH in ventral midbrain and striatum,"[2]; oral, 10 mg/kg",rescued
same,striatal TH-positive fiber density (IHC),"[2]; oral, 10 mg/kg",rescued
same,endpoint body mass,"[2]; oral, 6 months, 2 mg/kg or 10 mg/kg, all groups",No endpoint body mass differences
same,"time spent, number of entries in the far zone of the open arm of the EPM","[2]; oral, 6 months, 10 mg/kg",significantly restored
same,"time spent, number of entries, travelled distance in the center zone of the OFT","[2]; oral, 6 months, 10 mg/kg",significantly restored
same,contextual or cued fear conditioning: total freezing time and freezing episode,[2]; [7],recovered
same,fore- and hind-limb grip strength,[2]; [7],dramatically recovered
same,latency to fall from the rotarod test,[2]; [7],dramatically recovered
same,levels of pS129-α-syn in the TX-insoluble fraction of ventral midbrain (WB),"[2]; oral, both 2 mg/kg and 10 mg/kg",significantly reduced
same,level of autophagic marker LC-311,[3],up-regulated
same,level of autophagy flux protein p62,[3],down-regulated
same,LC-311 induction compared with BYL719 (alpelisib) or BAY 80-6946 (copanlisib),[4]; [8],more potent
same,level of LC-311,[4]; [8],increased
same,LC3+/5G4+ co-localized vesicles,[4]; [9],increased number
same,number of LC3+ puncta,[4]; [9],increased number
same,"Phosphorylation of PDK1 downstream targets PI3K, AKT, S6K, and mTOR",[5],significantly reduced
same,pS473-AKT,"[6]; α-syn PFF injected mice, normalized to pan-AKT",reduced
same,"Phosphorylation of PDK1 downstream targets PI3K, AKT, S6K, and mTOR","[6]; α-syn PFF-injected mice, 2 mg/kg or 10 mg/kg",significantly reduced
